A short description of series [1]: Pharmacokinetics in mice. Also noted: AUC: unit not given here. Type of series: in vivo, C57BL/6 mice. How it is done: Given M029's superb potency, selectivity, and target engagement, we considered that these desirable attributes make it a powerful chemical probe for interrogating the roles of SHP1 in biological processes and a promising lead for further development into an SHP1‐targeted therapy. […] To that end, we determined the pharmacokinetic (PK) properties of M029 in mice by administrating the compound via intraperitoneal (IP), intravenous (IV), and oral (PO) routes at a concentration of 25 mg/kg (Figure S4). […] Importantly, M029 is orally bioavailable. […] Moreover, even with the 25 mg/kg oral gavage, the plasma concentration of M029 was maintained several‐fold higher than its biochemical IC50 and two‐fold above its cellular EC50 for Jurkat T cell activation for at least 1 h duration (Figure S4). These PK properties ensure that adequate M029 compound exposure can be achieved to assess the effect of SHP1 inhibition in vivo.
Figure S4. Pharmacokinetic parameters of M029. Curves of (A) PO, (B) IP, (C) IV dosage of M029 at 25 mg/kg in WT C57BL/6 mice. Results were analyzed using GraphPad Prism 10.4.2. The figure is plotted as average ± standard error of the mean (SEM).
All the in vivo studies were performed under an animal protocol (1511001324) approved by the Institutional Animal Care & Use Committee of Purdue University, in accordance with the recommendations in the Guide for the Care and Use of Laboratory Animals of the National Institutes of Health. For PK study, C57BL6 female mice (25-30g body weight) were injected intraperitoneally, orally, or intravenously with 25 mg/kg M029 dissolved in 0.4 ml saline. Blood samples were collected through the tail vein at the indicated time points after injection. Isoflurane was used as an anesthetic. All blood samples were centrifuged at 1,500 g for 5 minutes, and plasma was separated and stored at –80°C until analysis by a validated method based on reversed-phase liquid chromatography coupled to mass-spectrometric detection (LC/MS) using a previously published procedure.^169 For the MC38 syngeneic tumor study, 12-week-old C57BL6 female mice were injected subcutaneously with […] MC38 cells in the right and left flanks for tumor growth. When tumors reached an average volume of 100 mm^3 mice were tumor size-matched and randomly assigned to different experimental groups for experiments. Four mice with eight tumors were used in each treatment group. Mice were injected orally with saline or 25 or 100 mg/kg M029 daily. Tumor sizes and animal weights were measured twice per week. Tumor volume (mm^3) = (length X width^2)/2. At the end of the experiments, mice were euthanized, and tumors were collected for analysis. Among eight tumors collected from each group, four homogenous samples and […] were prepared for Western blots and histology analysis.

For series [2], the system named is whole proteome in Jurkat T cells. The experiment in a line: Chemoproteomic maleimide-biotin competition. Format: cell-based, human. The method, then: To further define the selectivity of M029 for SHP1 and assess its cellular target engagement, a chemoproteomic investigation was performed to identify Cys residues protected by M029 from biotin‐tagged maleimide from the whole proteome in Jurkat T cells.^[ [79] ^] Since proteins labeled by M029 will be prevented from capture by the maleimide‐biotin probe, M029‐modified proteins can be readily identified by determining the ratio between the maleimide‐biotin‐bound proteins in the absence and presence of M029. […] The modest observed off‐target reactivity of M029 is not uncommon for targeted covalent inhibitors, including those FDA‐approved covalent drugs targeting EGFR (Osimertinib),^[ [80], [81] ^] BTK (Ibrutinib),^[ [82] ^] and KRAS (Sotorasib),^[ [83] ^] which also modify other proteins in addition to the intended targets. […]
For chemical proteomics studies, Cells were placed in 1 mL urea lysis buffer (100 mM Tris-HCl, pH 8, 8 M urea) and sonicated on ice for three 1-min rounds at 15% amplitude. […] Total protein concentrations were determined using the bicinchoninic acid (BCA) protein assay kit (Thermo Scientific Pierce, Rockford, IL). […]
Mal-biotin labeled peptides were diluted in 1 mL of PBS with 50 μL of High-Capacity NeutrAvidin slurry (Thermo Scientific). […] The peptide samples were analyzed by using an Evosep One LC coupled to a timsTOF HT mass spectrometer (Bruker). […]

Read-outs that look alike come from different tables or passages of the source.

As for `N#Cc1ccsc1NS(=O)(=O)c1ccc(NC(=O)CCl)cc1` [M029, 2-Chloro-N-(4-(N-(3-cyanothiophen-2-yl)sulfamoyl)phenyl)acetamide], the “duration plasma concentration above biochemical IC50 and two-fold above cellular EC50” value in series [1] (25 mg/kg oral gavage) is “at least 1 h”. Besides, the AUC was determined as 1410 in series [1] (female, C57BL/6, mouse, plasma, 25 mg/kg oral, read-out: AUC, oral) and 5090 in series [1] (female, C57BL/6, mouse, plasma, ip, 25 mg/kg intraperitoneal, read-out: area under the curve (AUC), IP). Also, the Cmax in series [1] (female, C57BL/6, mouse, plasma, 25 mg/kg oral, read-out: Cmax, oral) is 29.8 ± 7.1 µM; in series [1] (female, C57BL/6, mouse, plasma, ip, 25 mg/kg intraperitoneal, read-out: peak plasma concentration (Cmax), IP), 122 ± 28.2 µM. In addition, the half-life turned out to be 38.5 ± 7.6 min in series [1] (female, C57BL/6, mouse, plasma, 25 mg/kg oral, read-out: t1/2, oral) and 36.3 ± 5.7 min in series [1] (female, C57BL/6, mouse, plasma, ip, 25 mg/kg intraperitoneal, read-out: half-life (t1/2), IP). Besides, the bioavailability in series [1] (female, C57BL/6, mouse, plasma, po, 25 mg/kg, read-out: oral bioavailability (%F)) is 18%. The “rank of SHP1 (Cys480) among M029-labeled proteins” value in series [2] (>2700 peptide fragments identified) is “second most”. Besides, the “number of proteins significantly blocked from maleimide modification” value in series [2] (cutoff 10-fold, p 0.05) is “five”.

The bioavailability is the share of a dose that reaches the circulation, judged against a reference dose that is usually intravenous.

Source of the values: paper PMC12833730, “Discovery of a First‐in‐Class Covalent Allosteric SHP1 Inhibitor with Immunotherapeutic Activity” (Angewandte Chemie (International Ed. in English), 2025).
